Patent US20070154452A1, “Therapeutic agent for pancreas cancer” (ORIENT CANCER THERAPY, priority 2004, published 2007)
Where a name gives a salt, the structure may show the parent alone.

How the values were obtained:
Format in all cases: in vivo, human
IL-12 = IL-12 production of the patients' peripheral blood monocyte fraction (ELISA); conditions: pancreas cancer, 8 cases, before and after Gemzar 1000 mg/mm^2 for three weeks then a week break, FIG. 3
Protocol: Firstly, a monocyte fraction is separated from blood for preparation. After heparinized peripheral blood is diluted twofold with Phosphate Buffer Saline (PBS) and mixed, the mixture is overlaid on Ficoll-Conray solution (specific gravity 1.077), centrifuged at […] for 20 minutes to collect a monocyte fraction. After washing it, RPMI-1640 medium added with 10% fetal bovine serum (FBS) is added and prepared such that the cell number becomes 1×10^6. Into 200 μl of the obtained cell suspension, Phytohemagglutinin (supplied by DIFCO) is added into a concentration of 20 μg/ml, then cultured it in a 96-well microplate in the presence of 5% CO2 at 37° C. for 24 hours to obtain a sample for measuring two kinds of cytokines in the cultured cell solution. To measure the amount of IL-12, a measuring kit based on enzyme immunoassay (ELISA) available from, for example, R&D SYSTEMS and MBL is used, though well known clinical and biochemical examinations can be used. Herein, a measuring kit supplied by R&D SYSTEMS was used. In practice, into each well of a 96-well microplate, 50 μl of measuring diluent of Assay Diluent RD1F, and 200 μl of standard or sample prepared from the preparation method for measuring cytokines described above were dispensed, and then allowed it to stand and react at room temperature for 2 hours. […] The amount of IL-12 is expressed as pg/ml. […]

IFNγ = IFNγ production of the patients' peripheral blood monocyte fraction (EIA); set-up: dose or concentration left out as unconfirmed; conditions: pancreas cancer, 8 cases, before and after Gemzar for three weeks then a week break, FIG. 3
Protocol: Firstly, a monocyte fraction is separated from blood for preparation. After heparinized peripheral blood is diluted twofold with Phosphate Buffer Saline (PBS) and mixed, the mixture is overlaid on Ficoll-Conray solution (specific gravity 1.077), centrifuged at […] for 20 minutes to collect a monocyte fraction. After washing it, RPMI-1640 medium added with 10% fetal bovine serum (FBS) is added and prepared such that the cell number becomes 1×10^6. Into 200 μl of the obtained cell suspension, Phytohemagglutinin (supplied by DIFCO) is added into a concentration of 20 μg/ml, then cultured it in a 96-well microplate in the presence of 5% CO2 at 37° C. for 24 hours to obtain a sample for measuring two kinds of cytokines in the cultured cell solution. The measurement of IFNγ was conducted by enzyme immunoassay (EIA method) using […] kit from BioSource Europe S. In practice, into a each well of a 96-well microplate, 50 μl of standard or the twofold dilution of prepared sample described above was dispensed, then 50 μl of anti-IFNγ antibody labeled with HRP was dispensed, and further allowed to react for 2 hours at room temperature with shaking. […] The amount of IFNγ is expressed as IU/ml.

Th1/Th2 = Th1/Th2 before and after administration of Gemzar; conditions: pancreas cancer, 8 cases, before and after Gemzar 1000 mg/mm^2 for three weeks then a week break, FIG. 3
Description: Gemcitabine hydrochloride (Gemzar™) is an anticancer agent developed by Eli Lilly and Company. This Gemzar was approved to apply for insurance for pancreas cancer in April in 2001. […] Inhibitory effects were also not observed in the ratios of NK cells (8 cases), perforin-producing NK cells (8 cases), NKT cells (8 cases) and perforin-producing NKT cells (8 cases) to total lymphocytes (FIG. 4).

NK cells and NKT cells = test: Ratios of NK, NKT and perforin-producing cells to total lymphocytes (flow cytometry); conditions: pancreas cancer, 8 cases, before and after Gemzar, FIG. 4
Protocol: The measurement of NKT cells having NKR-P1 can be conducted by measuring cell surface antigens (CD3 and CD161 ) which are specifically presented on the NKT cell surface. In particular, lymphocytes in peripheral blood are tested for cells of CD3 positive and CD161 positive [CD3 (+) and CD161 (+)]. Thus, CD3 and CD161 which are cell surface antigens on NKT cell are measured by Two Color assay which uses monoclonal antibodies and flow cytometry. Here, activated NKT cells mean that the ratio of NKT [CD3 (+) and CD161 (+)] cells in lymphocytes is 10% or more, and more preferably 16% or more. The ability of activating NKT cell means the function which can increase NKT cell ratio by 10% or more, and more preferably 16% or more, or which can further increase NKT cell ratio more than that before administering a certain substance. Likewise, [CD3 (−) and CD161 (+) ] means to assay for CD3 negative and CD161 positive cells. This method is useful in measurement of NK cells. In addition, CD8 (+) means to assay for CD8 positive cells. This method is useful in measurement of CTL activity. In the Examples, bloods from cancer patients were used, and cells in blood were separated into positive and negative for cell surface antigens, CD3, CD161 and CD8, and each cell ratio was measured by Two Color assay using flow cytometry following a conventional manner. At this time, monoclonal antibodies used against CD3 , CD161 and CD8 were supplied by Coulter or Becton & Dickinson respectively. For lymphocytes in peripheral blood, two of CD3 , CD161 and CD8 of cell surface antigens and perforin are measured by Three Color assay using flow cytometry following a conventional manner. Specifically, into a collected blood, a fixative solution is added to fix cells, then after adding a membrane permeabilizer, an anti-perforin antibody (supplied by Pharmingen) is added for reaction, further secondary antibody labeled with PRE-Cy5 (from DAKO) is added for reaction, then anti-CD3-PE (Coulter 6604627) antibody and anti-CD161-FITC (B-D) antibody are added for reaction, thereafter subjected to measurement by flow cytometry. They were abbreviated as P or PER in figures and tables.

Nc1ccn([C@@H]2O[C@H](CO)[C@@H](O)C2(F)F)c(=O)n1 [Gemzar, gemcitabine hydrochloride]
not observed: effects inhibiting cytokines: IL-12 (IL-12) | effects inhibiting cytokines: IFNγ (IFNγ) | effects inhibiting cytokines: Th1/Th2 (Th1/Th2) | inhibitory effects on ratio of NK cells to total lymphocytes (NK cells and NKT cells) | inhibitory effects on ratio of NKT cells to total lymphocytes (NK cells and NKT cells) | inhibitory effects on ratio of perforin-producing NK cells to total lymphocytes (NK cells and NKT cells) | inhibitory effects on ratio of perforin-producing NKT cells to total lymphocytes (NK cells and NKT cells)
